{"source": "paper PMC7136958", "about": "“Targeting the pregnane X receptor using microbial metabolite mimicry” (EMBO Molecular Medicine, 2020)", "key": {"pxr -/- mice": {"system": "pxr -/- mice", "assay": "DSS-induced acute colitis in pxr -/- mice", "assay_type": "in vivo, mouse", "protocol": "For these studies, 7‐ to 8‐week‐old female (DeVoss & Diehl, 2014) hPXR (mice expressing the human PXR gene) and pxr ^−/− mice (C57BL/6 background) were bred and each genotype was separated into two treatment groups using a random allocation method via coin toss—(i) n = 3 control (0.8% DMSO in 100 μl drinking water) and (ii) n = 3 FKK6 (200 μM (0.4 mg/kg/day) in 0.8% DMSO in 100 μl drinking water) administered once per day via oral gavage, and via intrarectal gavage for a total of 10 consecutive days The dose was chosen based on the extrapolation of the total dose delivered over 10 days to mice (~ 4 mg/kg), which is equivalent to that delivered to mice for determining target gene expression over 3–5 doses (3–5 mg/kg). […] Fecal pellets were collected prior to the initiation of the treatment protocol. All mice were starved overnight (12 h) to allow for smooth intrarectal delivery; however, the mice were allowed to feed ad libitum during the day. After 10 days, the mice were sacrificed and organs/tissues/feces harvested for further study. Prior to necropsy, mice were administered FITC‐dextran, and mouse serum was collected for the FITC‐dextran assay as previously described (Vetizou et al, 2015). The experimenter was not blinded to treatment allocation; however, the pathologist (KS) evaluating histologic scores was blinded to treatment allocation. […]"}, "PARP 1": {"target": "T1, PARP 1 (Homo sapiens, UniProt P09874)", "T1 construct": "purchased Reaction Biology Corp. (RBC) PAR-21-346", "T1 sequence (P09874 whole entry, species assumed)": "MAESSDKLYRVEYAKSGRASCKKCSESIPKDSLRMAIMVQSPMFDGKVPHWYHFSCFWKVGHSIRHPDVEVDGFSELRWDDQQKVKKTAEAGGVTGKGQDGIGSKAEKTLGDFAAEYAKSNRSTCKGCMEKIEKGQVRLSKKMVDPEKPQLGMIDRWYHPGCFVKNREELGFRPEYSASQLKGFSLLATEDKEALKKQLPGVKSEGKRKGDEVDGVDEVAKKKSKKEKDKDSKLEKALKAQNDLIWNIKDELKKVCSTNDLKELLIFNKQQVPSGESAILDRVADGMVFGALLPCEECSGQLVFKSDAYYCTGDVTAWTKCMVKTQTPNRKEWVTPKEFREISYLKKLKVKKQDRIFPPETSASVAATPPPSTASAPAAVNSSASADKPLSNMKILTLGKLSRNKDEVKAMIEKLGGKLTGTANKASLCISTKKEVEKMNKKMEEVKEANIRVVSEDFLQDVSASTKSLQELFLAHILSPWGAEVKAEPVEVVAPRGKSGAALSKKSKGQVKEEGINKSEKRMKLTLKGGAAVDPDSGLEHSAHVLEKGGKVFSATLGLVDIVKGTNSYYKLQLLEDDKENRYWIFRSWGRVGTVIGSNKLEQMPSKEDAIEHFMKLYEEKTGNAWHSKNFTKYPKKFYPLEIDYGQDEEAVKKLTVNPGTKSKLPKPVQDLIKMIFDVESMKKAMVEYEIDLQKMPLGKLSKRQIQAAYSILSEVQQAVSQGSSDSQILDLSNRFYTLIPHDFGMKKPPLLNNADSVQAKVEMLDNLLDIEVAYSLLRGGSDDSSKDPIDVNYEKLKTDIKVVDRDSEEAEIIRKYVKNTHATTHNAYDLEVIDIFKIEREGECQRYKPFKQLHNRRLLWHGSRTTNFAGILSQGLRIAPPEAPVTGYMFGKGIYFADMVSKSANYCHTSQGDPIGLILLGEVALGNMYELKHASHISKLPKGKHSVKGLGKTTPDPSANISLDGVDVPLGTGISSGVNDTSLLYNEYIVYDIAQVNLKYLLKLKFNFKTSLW", "assay": "PARP assay (Reaction Biology)", "assay_type": "biochemical", "details": "replicates", "protocol": "The following […] assays (HDAC, SIRT1, PRMT1, PARP1, p300, pCAF) were performed by Reaction Biology Corp. FKK6 was screened at a single concentration of 10 μM in duplicate in two separate experiments. The appropriate controls for the individual assays are published. The overall […]\nenzyme activity in the assay is reported as a % activity in DMSO control wells. Control IC50 […]\nBriefly, for the Sirtuin (SIRT1) assay, human SIRT1 (GenBank\nAccession No. NM012238) full -length N-terminal His-tag protein (MW 83.2 kDa) was purified after expression in E. coli. The reaction buffer was freshly prepared and constituted 50 mM Tris-HC l ( p H 8), 137 mM NaCl, 2.7 mM KCl, 1 mM MgCl2, and just before use, 1 mg/mL BSA and 1% DMSO was added. The substrate was a fluorogenic acetylated peptide of p53 residues 379-382 (RHKK (Ac)- AM C) . In th e multi-well format, the 2X enzyme was mixed with the reaction buffer followed by compound (in 100% DMSO) titration via Acoustic technology (Echo550; LabCyte Inc, Sunnyvale, CA) in the nanoliter range. The mixture was spun down and 2X substrate (including NAD+) was added to initiate the reaction at 30° C at 2h under seal. […] Fluorescence kinetic measurements were conducted for 1.5 h in 15 min intervals using Envision (Ex 360nm/Em 460nm). […] The compound mixture was placed on filter paper and washed with 0.75% phosphoric acid and radioactivity counted. […]"}}, "note": "Values joined by “and” are separate entries in the source; they are usually repeats but may differ in a detail not shown here. Equal values may be shown once."}
{"smiles": "C#CCC(O)(c1ccncc1)c1cc2ccccc2n1S(=O)(=O)c1ccccc1", "note": "(stereo not shown) [FKK6]", "values": [{"measurement": "weight loss, colon length, inflammation score, lipocalin 2, FITC-dextran levels", "setting": "pxr -/- mice; FKK6 200 μM, 10 days", "value": "did not alter"}, {"measurement": "% weight loss from baseline (day 10)", "setting": "pxr -/- mice; pxr -/- mice, DSS colitis, Fig 6a, individual values", "value": "24% and 25% and 22%"}, {"measurement": "% Enzyme Activity to DMSO controls", "setting": "PARP 1; 10 μM", "value": "98.25% and 91.38% and 91.03%"}, {"measurement": "remaining activity at 10 µM", "setting": "PARP 1; read-out: % Enzyme Activity to DMSO controls", "value": 99.2, "unit": "%"}]}
